The text below walks through data of ChEMBL document CHEMBL4813910, “Curse or Cure? A Perspective on the Developability of Aldehydes as Active Pharmaceutical Ingredients” (J Med Chem, 2020).

A word on the Cmax: it is the peak of the concentration-time curve. As usually defined, the CL/F is the apparent clearance, not corrected for the fraction that reaches the circulation. The term Kp denotes the ratio of the level in a tissue or fluid to that in plasma or blood. Broadly, the Tmax is the time at which the peak concentration occurs. In general, AUC(0-t) refers to the area under the concentration-time curve up to a stated or last time point. Higher therefore signals more exposure.

A short description of series [1]: Cmax in human erythrocytes at 2.8 g, po by liquid chromatography-tandem mass spectrometry method. In kind it is ADME, organism-based, Erythrocyte. Further details: route oral, dose 2.8 g.
Series [2] in a line: Central volume of distribution in human at 2.8 g, po. The series is classed as ADME. The note with it: in vivo.
A short description of series [3]: Clearance in human at 2.8 g, po by liquid chromatography-tandem mass spectrometry method. The note with it: in vivo. The series is classed as ADME, organism-based.
The nature of series [4]: Ratio of drug level in human erythrocytes to plasma at 2.8 g, po. In kind it is ADME.
The nature of series [5]: Tmax in human plasma at 2.8 g, po by liquid chromatography-tandem mass spectrometry method. In kind it is ADME, organism-based.
A short description of series [6]: Tmax in human erythrocytes at 2.8 g, po by liquid chromatography-tandem mass spectrometry method. The series is classed as ADME, organism-based, Erythrocyte.
Series [7] can be described thus: Cmax in human plasma at 2.8 g, po by liquid chromatography-tandem mass spectrometry method. Further details: route oral, dose 2.8 g. The series is classed as ADME, organism-based.
Series [8] can be described thus: AUC (0 to 24 hrs) in human plasma at 2.8 g, po by liquid chromatography-tandem mass spectrometry method. Further details: time < 24 hr, route oral, dose 2.8 g. In kind it is ADME, organism-based.
Series [9] is described as follows: Induction of hemoglobin modification in human at 900 mg/day.

For `CC(C)n1nccc1-c1ncccc1COc1cccc(O)c1C=O` [VOXELOTOR], the Cmax in series [1] was 1110 µM; in [7], 18.7 µM. In [2], this molecule came in with a Vc of 5.2 L/kg. The molecule further displayed a CL/F in [3] of 5.4 mL/h/kg. Besides, the Kp in [4] was determined as 67. Besides, the Tmax in series [5] was 7.1 h; in series [6], 17.1 h. The molecule further returned an AUC(0-t) at 24 h in series [8] of 1280 µM·h. The same molecule came in with an Activity in series [9] of 40%.
